Experimental findings from patent publication US10028956B2, “Methods of treating various cancers using an AXL/cMET inhibitor in combination with other agents” (Ignyta, Inc., priority 2013, dated 2018) are described below.

Some results are limits rather than exact numbers.

In the assay the target is T1, AXL (Homo sapiens, UniProt P30530).
T1 sequence (P30530 26-894): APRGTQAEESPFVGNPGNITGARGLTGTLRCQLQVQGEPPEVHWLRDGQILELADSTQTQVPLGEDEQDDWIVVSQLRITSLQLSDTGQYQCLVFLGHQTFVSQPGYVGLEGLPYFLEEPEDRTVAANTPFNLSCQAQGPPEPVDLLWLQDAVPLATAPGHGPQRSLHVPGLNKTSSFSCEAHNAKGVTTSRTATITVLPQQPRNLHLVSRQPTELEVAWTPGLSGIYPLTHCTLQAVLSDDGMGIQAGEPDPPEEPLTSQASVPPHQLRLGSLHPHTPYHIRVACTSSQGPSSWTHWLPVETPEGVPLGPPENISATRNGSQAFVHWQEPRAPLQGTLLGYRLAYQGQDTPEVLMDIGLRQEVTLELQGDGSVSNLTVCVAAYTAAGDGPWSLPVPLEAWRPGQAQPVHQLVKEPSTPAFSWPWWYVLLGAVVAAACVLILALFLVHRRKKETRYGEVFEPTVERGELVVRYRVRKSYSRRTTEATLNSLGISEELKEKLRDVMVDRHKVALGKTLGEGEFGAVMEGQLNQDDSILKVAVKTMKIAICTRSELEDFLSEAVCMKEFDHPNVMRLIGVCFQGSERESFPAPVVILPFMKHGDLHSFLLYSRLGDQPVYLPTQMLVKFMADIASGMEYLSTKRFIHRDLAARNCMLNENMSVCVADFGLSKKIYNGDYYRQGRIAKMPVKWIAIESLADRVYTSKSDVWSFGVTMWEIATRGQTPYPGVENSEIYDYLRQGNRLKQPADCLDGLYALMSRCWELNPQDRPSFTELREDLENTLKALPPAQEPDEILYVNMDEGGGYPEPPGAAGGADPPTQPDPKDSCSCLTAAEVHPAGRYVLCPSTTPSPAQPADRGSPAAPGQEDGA
In words: Inhibition of AXL phosphorylation in NCI-H1299 NSCL xenografts (PK/PD). The assay is classed as in vivo, mice. Further details: endogenous in cells; host or cells: NCI-H1299 human NSCLC cells (culture; subcutaneous xenograft in mice). The text has this: Female Nu/Nu mice (6-8 weeks, Charles River Laboratory, Wilmington, Mass.) were maintained 5/cage in microisolator units on a standard laboratory diet (Teklad Labchow, Harlan Teklad, Madison, Wis.). Animals were housed under humidity- and temperature-controlled conditions and the light/dark cycle was set at 12-hour intervals. Mice were quarantined at least 1 week prior to experimental manipulation. Experiments were approved (Protocol 03-023) by the Institutional Animal Care and Use Committee of Teva Pharmaceuticals Inc
Briefly, NCI-H1299 NSCL cells (for AXL studies) or GTL-16 gastric carcinoma cells (for c-Met studies) were collected and resuspended in DMEM medium at density of 5×10^7/mL and an aliquot (100 μL) of the cell suspension (5×10^6 cells) was inoculated subcutaneously to the left flank of each mouse with a 23 g needle. […] At indicated time points post dosing, the mice (3 mice at each time point) were sacrificed by decapitation and blood was collected in 1.5 mL microcentrifuge tubes containing 20 μL of heparin sodium (10,000 unit/mL in H2O, Cat^#0210193191, MP Biomedical, Solon, Ohio) and left on ice briefly. The tubes were centrifuged at 20,817×g (Eppendorf Centrifuge 5417R with a FA45-30-11 rotor) for 8 minutes at 4° C. and the plasma was collected and transferred to 1.5 mL microfuge tubes, which were then stored at −80° C. The tumors were excised and weighed, cut into small pieces with a scalpel and placed into a round-bottom 14 mL tube (Cat^#352059, Becton Dickinson, Franklin, N.J.) on ice. Two volumes of FRAK lysis buffer without detergent [10 mM Tris, pH 7.5, 50 mM sodium chloride, 20 mM sodium fluoride, 2 mM sodium pyrophosphate, 0.1% BSA, plus freshly prepared 1 mM activated sodium vanadate, 4 mM DTT, 1 mM PMSF and the protease inhibitor cocktail III (1:100 dilution, Cat^#539134, Calbiochem, La Jolla, Calif.)] were added to 1 volume of tumor (eg, 500 μL FRAK lysis buffer were added to 250 mg tissue). […] The compound levels in both plasma and tumor lysates were measured by LC-MS/MS. […]

Consider `COc1cc2nccc(Oc3ccc(NC(=O)c4cn(C(C)C)c(=O)n(-c5ccc(F)cc5)c4=O)cc3F)c2cc1OC` [CEP-40783, 3-(4-Fluorophenyl)-1-isopropyl-2,4-dioxo-1,2,3,4-tetrahydropyrimidine-5-carboxylic acid [4-(6,7-dimethoxyquinolin-4-yloxy)-3-fluorophenyl]-amide], for which the “inhibition of AXL phosphorylation (target inhibition)” value is, setting by setting: (0.3 mg/kg, 6 h post dose) roughly 80%; (1 mg/kg, between 6-24 h) greater than 90%. Also, the “inhibition of AXL phosphorylation” value (10 mg/kg po, up to 48 h post dosing) is on record as “complete AXL inhibition”.
